Test results published in patent US6723739B1, “Glucopyranoside benzothiophenes” (Eli Lilly and Company, priority 1994, dated 2004).

What was measured:
[1] = Systemic circulation and metabolites after oral raloxifene in humans; format: in vivo, human
serum cholesterol = assay: Serum cholesterol in the ovariectomized rat post-menopausal model; format: in vivo; conditions: OVX rats, daily for 4 days
Protocol: (§1) A post-menopausal model was used in which effects of different treatments upon circulating lipids were determined.
(§2) Seventy-five day old female Sprague Dawley rats (weight range of 200 to 225 g) were obtained from Charles River Laboratories (Portage, Mich.). The animals were either bilaterally ovariectomized (OVX) or exposed to a sham surgical procedure at Charles River Laboratories, and then shipped after one week. Upon arrival, they were housed in metal hanging cages in groups of 3 or 4 per cage and had ad libitum access to food (calcium content approximately 0.5%) and water for one week. Room temperature was maintained at 22.2°±1.7° C. with a minimum relative humidity of 40%. The photoperiod in the room was 12 hours light and 12 hours dark.
(§3) Dosina Regimen/Tissue Collection. After a one week acclimation period (therefore, two weeks post-OVX) daily dosing with test compound was initiated. All compounds were administered subcutaneously at the dosages listed. Animals were dosed daily for 4 days. Following the dosing regimen animals were weighed and anesthetized with a ketamine: xylazine (2:1, [V:V] mixture and a blood sample was collected by cardiac puncture. The animals were then sacrificed by asphyxiation with CO2 and the uterus was removed through a midline incision and a wet weight was determined.
Cholesterol Analysis. Blood samples were allowed to clot at room temperature for 2 hrs, and serum was obtained following centrifugation for 10 min at 3000 rpm. Serum cholesterol was determined using a Boehringer Mannheim Diagnostics high performance cholesterol assay. Briefly the cholesterol was oxidized to cholest-4-en-3-one and hydrogen peroxide. The hydrogen peroxide was then reacted with phenol and 4-aminophenazone in the presence of peroxidase to produce a p-quinone imine dye, which was read spectrophotometrically at 500 nm. Cholesterol concentration was then calculated against a standard curve. The entire assay was automated using a Biomek Automated workstation.

[2] = test system: uterine eosinophil peroxidase; assay: Uterine eosinophil peroxidase (EPO) assay in ovariectomized rats; format: in vivo, rat; conditions: OVX rats, daily for 4 days
From the text: as §2, §3
Uterine Eosinophil Peroxidase (EPO) Assay. The presence of eosinophils in the uterus is an indication of estrogenic activity of a compound. To maintain EPO activity, uteri were kept at 4° C. until time of enzymatic analysis. The uteri were then homogenized in 50 volumes of 50 mM Tris buffer (pH-8.0) containing 0.005% Triton X-100. Upon addition of 0.01% hydrogen peroxide and 10 mM o-phenylenediamine (final concentrations) in Tris buffer, increase in absorbance was monitored for one minute at 450 nm. The maximal velocity of a 15 second interval was determined over the initial linear portion of the reaction curve.

uterus = assay: Uterine wet weight in ovariectomized rats; format: in vivo, rat; conditions: OVX rats, daily for 4 days, vs control OVX
Protocol: as §1, §2, §3

SMILES | Concentrations of raloxifene in systemic circulation ([1]; administered orally to humans) | Metabolite status ([1]; human metabolite of raloxifene) | % Decrease of Serum Cholesterol (serum cholesterol; 0.013 mg/kg subcutaneously) | % Decrease of Serum Cholesterol (serum cholesterol; 0.13 mg/kg subcutaneously) | % Decrease of Serum Cholesterol (serum cholesterol; 1.3 mg/kg subcutaneously) | EPO Activity (Vmax for eosinophil peroxidase activity) ([2]; 0.013 mg/kg subcutaneously) | EPO Activity (Vmax for eosinophil peroxidase activity) ([2]; 0.13 mg/kg subcutaneously) | EPO Activity (Vmax for eosinophil peroxidase activity) ([2]; 1.3 mg/kg subcutaneously) | % Uterine Wt. gain (uterus; 0.013 mg/kg subcutaneously) | % Uterine Wt. gain (uterus; 0.13 mg/kg subcutaneously) | % Uterine Wt. gain (uterus; 1.3 mg/kg subcutaneously)
Cl.O=C(c1ccc(OCCN2CCCCC2)cc1)c1c(-c2ccc(O)cc2)sc2cc(O)ccc12 [raloxifene, 6-Hydroxy-2-(4-hydroxyphenyl)-3-[4-(2-piperidinoethoxy)benzoyl]benzo[b]thiophene, reference compound] | absence of detectable concentrations | – | – | – | – | – | – | – | – | – | –
O=C(c1ccc(OCCN2CCCCC2)cc1)c1c(-c2ccc(O[C@@H]3O[C@H](C(=O)O)[C@@H](O)[C@H](O)[C@H]3O)cc2)sc2cc(O)ccc12 [Ib] | – | predominant human metabolite | 13.6% | 21.9% | 56.8% | 3.2 n OD/min | 3.1 n OD/min | 4.4 n OD/min | −7.7% | 14.5% | 36.1%
O=C(c1ccc(OCCN2CCCCC2)cc1)c1c(-c2ccc(O)cc2)sc2cc(O[C@@H]3OC(C(=O)O)[C@@H](O)[C@H](O)[C@H]3O)ccc12 (some centres unmarked) [Ia] | – | – | 21.7% | 43.8% | 44.5% | 2.0 n OD/min | 2.3 n OD/min | 3.5 n OD/min | −21.3% | 14.2% | 24.1%
